The source of these data is PubChem BioAssay (NCI).

Some test systems named below: A498 renal; HCC-2998 colon; HCT-15 colon; HT29 colon; K-562 leukemia; MCF7 breast; MDA-MB-231 breast; NCI-H226 lung; OVCAR-5 ovarian; T-47D breast.
Holding throughout (experiment): NCI anticancer screen, dose series, 48 h

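Step 1: Grow cells in 96-well plates. Step 2: Expose to compound for 48 hours at 5 concentrations. Step 3: Interpolate endpoints linearly; if unreached, use highest concentration. TGI marks complete inhibition of growth.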 Where a SMILES comes first, the peptide text is derived from it.

As for `C/C(N=Nc1nc2ccccc2[nH]1)=C1/C=CC=CN1O`, the TGI with A498 renal, in the experiment with HCC-2998 colon, with HCT-15 colon, with HT29 colon, with K-562 leukemia and in the experiment with MCF7 breast was greater than 100 µM throughout. Moreover, the TGI in the experiment with MDA-MB-231 breast, with NCI-H226 lung, with OVCAR-5 ovarian and in the experiment with T-47D breast was greater than 100 µM each time.

For `COC1CC(CC2CCC(C)C(C(C)C(=O)O)O2)OC2(OC(C)(C3CCC(C)(C4OC(C5OC(O)(CO)C(C)CC5C)CC4C)O3)CC2C)C1C` (stereo not given), the TGI is 3.39 µM in the experiment with A498 renal; 11.5 µM in the experiment with HCC-2998 colon; 29.1 µM in the experiment with HCT-15 colon; 27.4 µM with HT29 colon; 2.03 µM with K-562 leukemia; greater than 27.9 µM in the experiment with MCF7 breast. The TGI is 46 µM with MDA-MB-231 breast, 21.3 µM in the experiment with NCI-H226 lung, 69.6 µM with OVCAR-5 ovarian and 2.41 µM in the experiment with T-47D breast.

Regarding `CSCCC(NC(=O)OCc1ccccc1)P(=O)(O)c1ccccc1` (stereo not given), the TGI with HCC-2998 colon, in the experiment with HCT-15 colon, in the experiment on HT29 colon, in the experiment with K-562 leukemia, in the experiment with MCF7 breast and with MDA-MB-231 breast was greater than 100 µM throughout. Further, the TGI in the experiment with NCI-H226 lung, in the experiment on OVCAR-5 ovarian and with T-47D breast was greater than 100 µM throughout.

With `CCC(C)C(NC(=O)C1CCCN1C(=O)C(CC(C)C)NC(=O)C(CC(C)C)NC(=O)C(N)CC(C)C)C(=O)NC(C(=O)NCC(=O)NC(CC(N)=O)C(=O)NC(CC(C)C)C(=O)NC(CC(C)C)C(=O)NC(CC(C)C)C(N)=O)C(C)C` (stereo not given) (H-LLLPIVGNLLL-NH2; configuration not given here), the TGI in the experiment on A498 renal, in the experiment on HCT-15 colon, in the experiment with HT29 colon, with MCF7 breast, with MDA-MB-231 breast and in the experiment on NCI-H226 lung was greater than 50 µM each time. Besides, the TGI in the experiment with OVCAR-5 ovarian and with T-47D breast was greater than 50 µM throughout.

Turning to `CCCCCOC(=O)c1cc2cc(CCl)ccc2oc1=O`, the TGI in the experiment on A498 renal is 5.39 µM; in the experiment with HCC-2998 colon, 28.1 µM; in the experiment on HCT-15 colon, 35.4 µM; in the experiment with HT29 colon, 35.4 µM; with K-562 leukemia, greater than 49.4 µM; in the experiment with MCF7 breast, greater than 56.9 µM. Further, the TGI in the experiment on MDA-MB-231 breast was 37.5 µM; with NCI-H226 lung, 38 µM; in the experiment with OVCAR-5 ovarian, 31.6 µM; in the experiment on T-47D breast, 13.6 µM.

Turning to `O=C(O)C(O)C(O)C(O)C(=O)CO` (stereo not given), the TGI in the experiment with A498 renal, in the experiment on HCC-2998 colon, in the experiment with HCT-15 colon, with HT29 colon, with K-562 leukemia and with MCF7 breast was greater than 100 µM each time. Further, the TGI in the experiment on MDA-MB-231 breast, in the experiment with NCI-H226 lung, with OVCAR-5 ovarian and in the experiment on T-47D breast was greater than 100 µM in each case.

In the case of `Nc1ccc(-c2nc3cc(F)ccc3s2)cc1CO`, the TGI with A498 renal is 0.0141 µM; in the experiment on HCC-2998 colon, 6.17 µM; in the experiment on HCT-15 colon, greater than 100 µM; in the experiment on HT29 colon it was greater than 100 µM; in the experiment with K-562 leukemia, greater than 100 µM; in the experiment on MCF7 breast, 19.7 µM. Moreover, the TGI with MDA-MB-231 breast was greater than 70 µM; in the experiment on NCI-H226 lung, 0.409 µM; with OVCAR-5 ovarian it was greater than 100 µM; with T-47D breast, greater than 100 µM.

For the molecule `Cc1nc2ncn3c(c-2c1Cc1ccccc1)NC=C(O)N3`, the TGI in the experiment on A498 renal, in the experiment with HCC-2998 colon, in the experiment on HCT-15 colon, in the experiment with HT29 colon, in the experiment on MCF7 breast and in the experiment with MDA-MB-231 breast was greater than 100 µM in each case. In addition, the TGI in the experiment on NCI-H226 lung was greater than 100 µM; with OVCAR-5 ovarian, greater than 100 µM; with T-47D breast, 61.3 µM.

With `Cc1cnoc1NS(=O)(=O)c1ccc(Nc2nnc(/C=C/c3c(O)ccc4ccccc34)c(=O)n2N)cc1`, the TGI in the experiment with HCT-15 colon is 61.5 µM; in the experiment on HT29 colon it was greater than 100 µM; in the experiment on K-562 leukemia, 82.9 µM; with MCF7 breast, 47.5 µM; in the experiment on OVCAR-5 ovarian, 77.9 µM; in the experiment with T-47D breast, 82 µM.

Regarding `CC(=O)c1ccc2c(c1)N(CCCN1CCN(CCO)CC1)c1ccccc1C2`, the TGI was determined as 30.1 µM in the experiment on A498 renal; 28.8 µM in the experiment on HCT-15 colon; 22.4 µM in the experiment on HT29 colon; 30.1 µM in the experiment on K-562 leukemia; 26.7 µM in the experiment on MDA-MB-231 breast; 30.9 µM in the experiment with NCI-H226 lung. In addition, the TGI was found to be 32.1 µM in the experiment on OVCAR-5 ovarian and 25.9 µM with T-47D breast.

Consider `NC(=S)N1N=C(c2ccccc2O)CC1c1ccccc1` (stereo not given), for which the TGI in the experiment with A498 renal is 30.1 µM; in the experiment with HCC-2998 colon it was 27.3 µM; with HCT-15 colon it was 39 µM; in the experiment with HT29 colon, 28.9 µM; in the experiment with K-562 leukemia, greater than 100 µM; with MCF7 breast, 20.8 µM. Further, the TGI in the experiment on NCI-H226 lung is 53.8 µM; with OVCAR-5 ovarian, 50.9 µM; with T-47D breast it was 68.5 µM.

Turning to `CC(C)C1OC(=O)/C=C/C=C/C=C/C=C/C=C/CC(O)C(C)C(O)CC(O)CC(O)CC(O)CC(O)CC(O)CC(O)/C=C/C1C` (stereo not given), the TGI in the experiment on A498 renal, with HCC-2998 colon, with HCT-15 colon, in the experiment with HT29 colon, with K-562 leukemia and in the experiment on MCF7 breast was greater than 100 µM each time. For the same molecule, the TGI in the experiment on OVCAR-5 ovarian is greater than 100 µM.

Regarding `COC(=S)OC1CC(n2cnc3c(N)ncnc32)OC1CO[Si](C)(C)C(C)(C)C` (stereo not given), the TGI was 56.9 µM in the experiment on A498 renal; 49.8 µM in the experiment on HCT-15 colon; 30.1 µM with HT29 colon; greater than 100 µM with K-562 leukemia; 44.8 µM with MCF7 breast; 39.9 µM in the experiment with MDA-MB-231 breast. In addition, the TGI in the experiment on NCI-H226 lung worked out at 59.2 µM; with OVCAR-5 ovarian, 65.4 µM; with T-47D breast, 88.8 µM.

Consider `CC(=O)Oc1ccc(CO)cc1OC(C)=O`, for which the TGI with A498 renal, in the experiment on HCT-15 colon, with HT29 colon, with K-562 leukemia, in the experiment with NCI-H226 lung and in the experiment on OVCAR-5 ovarian was greater than 100 µM each time.

Turning to `COc1cc2c(cc1C)NC(=O)/C2=C/c1c(Cl)n(-c2ccccc2)c2ccccc12`, the TGI was greater than 100 µM in the experiment with A498 renal; 24.2 µM with HCC-2998 colon; 67.3 µM in the experiment on HCT-15 colon; greater than 100 µM with HT29 colon; greater than 100 µM in the experiment on K-562 leukemia; greater than 100 µM in the experiment with MCF7 breast. The results for the TGI in the experiment on MDA-MB-231 breast, in the experiment with OVCAR-5 ovarian and in the experiment on T-47D breast were greater than 100 µM, greater than 100 µM and 40.4 µM, respectively.
